Measurements: patent US9956157B2, “Composition containing fucosterol for skin whitening or moisturizing” (INDUSTRY-ACADEMIC COOPERATION FOUNDATION, YONSEI UNIVERSITY, priority 2014, dated 2018)

What was measured:
Assay type in all cases: cell-based
B16F10 melanoma cells = test: MTT cytotoxicity in B16F10 melanoma cells; settings: concentration of 0 to 20 μM, 48 hrs, FIG. 1
Experimental: B16F10 melanoma cells were incubated a dulbecco's modified eagle's media (DMEM) medium including 10% fetal bovine serum and then added in a 24-well plate with 2.5×10^4 cell/mL (the final volume of 1 mL). Fucosterol of 0.1, 1, 5, 10, and 20 μM was treated in the B16F10 melanoma cells, respectively. After treatment of 48 hrs, the medium was removed and a 0.5 mg/mL MTT solution was put in each well by 0.3 mL and the B16F10 melanoma cells were incubated in an incubator for 4 hrs. After 4 hrs, the MTT solution was removed and generated formazan was dissolved by adding dimetyl sulfoxide (DMSO) and then absorbance was measured at 570 nm and the result was illustrated in FIG. 1.

[1] = tested on: TRP-2 (tyrosinase-related protein 2); test: TRP-2 protein expression (western blot) in B16F10 melanoma cells; settings: 200 nM α-MSH, fucosterol 5 and 20 μM, 24 hrs, FIG. 6
Experimental: B16F10 melanoma cells were incubated in a DMEM medium including 10% fetal bovine serum and then added in a 6-well plate with 2.5×10^5 cell/mL (the final volume of 3 mL). After being incubated for 24 hrs, the medium was removed and fucosterol which was dissolved in the DMEM medium including 200 nM α-MSH was treated at 5 and 20 μM of concentrations, respectively. The cells after 24 hrs were lysed with a NP40 buffer solution including proteinase inhibitor cocktail and the protein amount extracted from the cells was quantified by using a Bradford reagent. The quantified protein was boiled for 5 min and isolated by electrophoresis with 10% SDS-PAGE to transfer the isolated proteins to a nitrocellular membrane. A primary antibody of […] and […] was diluted in 2.5% bovine serum albumin at a ratio of 1:1000 and reacted with the protein transferred to the nitrocellular membrane for 20 hrs at room temperature. The primary antibody was reacted and then the nitrocellular membrane was washed three times by using the TBST for 10 min. […] As the measured result, the protein expression of […] and […] was verified and it was shown that the loading amount of the protein was constant by α-tubulin.

involucrin = test: Involucrin mRNA expression (RT-PCR) in HaCaT human keratinocytes; settings: HaCaT cells, fucosterol 5, 10, 20 μM, 24 hrs, FIG. 9
Experimental: (§1) HaCaT human keratinocytes were incubated in a Dulbecco's Modified Eagle's Media (DMEM) medium including 10% fetal bovine serum and then put in a 6-well plate with 2×10^5 cell/ml (the final volume of 3 ml). After being incubated for 24 hrs, the medium was removed and fucosterol which was dissolved in the DMEM medium was treated at 5, 10, and 20 μM concentrations, respectively. After 24 hrs, the total RNA was collected by using a TRIzol reagent (Invitrogen, Carlsbad, Calif., USA) and reverse-transcribed and then a reverse transcription-polymerase chain reaction (RT-PCR) analysis was performed below. First, for cDNA synthesis, the RNA was reverse-transcribed by reverse transcriptase. The RT-PCR was performed by specific primers below and the result was illustrated in FIG. 9.

filaggrin [2] = test: Filaggrin mRNA expression (RT-PCR) in HaCaT human keratinocytes; settings: HaCaT cells, fucosterol 5, 10, 20 μM, 24 hrs, FIG. 11
Experimental: as §1, with “11.” for “9.”

caspase 14 = test: Caspase 14 mRNA expression (RT-PCR) in HaCaT human keratinocytes; settings: HaCaT cells, fucosterol 5, 10, 20 μM, 24 hrs, FIG. 11
Experimental: as §1, with “11.” for “9.”

filaggrin [3] = test: Filaggrin protein expression (western blot) in HaCaT human keratinocytes; settings: HaCaT cells, fucosterol 5, 10, 20 μM, 24 hrs, FIG. 12
Experimental: HaCaT human keratinocytes were incubated in a Dulbecco's Modified Eagle's Media (DMEM) medium including 10% fetal bovine serum and then put in a 6-well plate with 2×10^5 cell/ml (the final volume of 3 ml). After being incubated for 24 hrs, the medium was removed and fucosterol which was dissolved in the DMEM medium was treated at 5, 10, and 20 μM concentrations, respectively. After 24 hrs, the HaCaT human keratinocytes were lysed with a NP40 buffer solution including proteinase inhibitor cocktail. The protein amount extracted from the HaCaT human keratinocytes was quantified by using a Bradford method. The sample was boiled for 5 min and then the same amount of protein ([…]) was isolated by electrophoresis with 10% SDS-PAGE. The isolated proteins after electrophoresis were transferred to a nitrocellular membrane and western blot was performed. A primary antibody was reacted and the nitrocellular membrane was washed three times by using Tris-buffer saline tween20 (TBST) for 10 min. In this case, the kind and the dilution of the primary antibody used in the present invention is 1:1000. In a secondary antibody reaction, a secondary antibody was put in the membrane performing the primary antibody reaction and reacted for 2 hrs at room temperature. In this case, a dilution of the secondary antibody was 1:5000. […]

C/C=C(\CC[C@@H](C)[C@H]1CC[C@H]2[C@@H]3CC=C4C[C@@H](O)CC[C@]4(C)[C@H]3CC[C@]12C)C(C)C [fucosterol]
cytotoxicity (MTT) (B16F10 melanoma cells): the cytotoxicity was not shown | protein expression of TRP-2 [1]: reduced | mRNA expression of involucrin (involucrin): increased | mRNA expression of filaggrin (filaggrin [2]): increased | mRNA expression of caspase 14 (caspase 14): increased | protein expression of filaggrin (filaggrin [3]): increased
